The source of these data is patent US4740465A, “Heat-resistant sarcosine oxidase N and process for producing the same” (Noda Institute for Scientific Research, priority 1985, dated 1988).

For data set [1], the target named is T1, heat-resistant sarcosine oxidase N from Bacillus sp. NS-129 (present enzyme) (Bacillus sp., UniProt P23342).
T1 construct: the present enzyme is ordinarily present within the cells; made in house; host or cells: Bacillus sp; NS-129 (FERM BP-671), the native producer; purified from the cells
T1 sequence (P23342 1-387): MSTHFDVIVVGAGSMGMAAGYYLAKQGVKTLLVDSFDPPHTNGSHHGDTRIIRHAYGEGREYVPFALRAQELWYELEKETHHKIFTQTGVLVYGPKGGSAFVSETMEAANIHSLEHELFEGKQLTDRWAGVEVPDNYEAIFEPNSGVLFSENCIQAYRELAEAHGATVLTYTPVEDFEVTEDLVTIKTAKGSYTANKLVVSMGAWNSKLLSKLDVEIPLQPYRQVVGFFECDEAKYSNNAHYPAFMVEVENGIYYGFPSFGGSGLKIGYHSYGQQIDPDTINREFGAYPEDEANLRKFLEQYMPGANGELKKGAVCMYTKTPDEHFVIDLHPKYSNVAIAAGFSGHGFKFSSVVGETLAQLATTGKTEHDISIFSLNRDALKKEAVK
Kind of data set: Inhibition of heat-resistant sarcosine oxidase N. In kind it is biochemical. Particulars: inhibitor at 2 mM.

For data set [2], the target named is Known enzyme*2: the sarcosine oxidase described in J. Biochem. 89, 599 (1981) JAPAN (Corynebacterium sp., UniProt Q50LF2). The following applies: read-out: Km value for sarcosine; 37° C., pH 7.7; Table 1, known enzyme*2; cited from earlier work.
Substrate in data set [3]: CNCC(=O)O
Kind of data set: Km determination of heat-resistant sarcosine oxidase N (present enzyme). The following applies: other: 37° C., pH 7.7 (phosphate buffer solution). Type of data set: biochemical, Bacillus sp. NS-129. The protocol: First method: Sarcosine is oxidatively decomposed using the present enzyme and the resulting formaldehyde is determined by colorimetry.
To 0.3 ml of a 0.2 M sarcosine solution were added 0.1 ml of a 0.3 M phosphate buffer solution (pH 7.7) and 0.1 ml of a solution containing an appropriate concentration of the present enzyme. They were subjected to reaction at 37° C. for 10 minutes. The reaction was stopped by addition of 0.5 ml of a 1.0 N acetic acid solution. Thereto was added 3 ml of a color reagent (pH 6.5) containing 0.02% (V/V) of acetylacetone and 10% (W/V) of diammonium hydrogen phosphate. The resulting mixture was subjected to color development at 37° C. for 40 minutes. The absorbance of the resulting color at 410 nm was measured using a photoelectric photometer.
Second method: Sarcosine is oxidatively decomposed using the present enzyme and the resulting hydrogen peroxide (H2 O2) is determined by colorimetry.
0.1 ml of a solution containing an appropriate concentration of the present enzyme was added to a mixture of 0.5 ml of a 0.2 M sarcosine solution, 0.1 ml of a 0.3 M phosphate buffer solution (pH 7.7), 0.1 ml of a 0.2% 2,4-dichlorophenol sulfonate solution, 0.1 ml of a 70 mg/100 ml 4-aminoantipyrine solution and 0.1 ml of a 70 units/ml peroxidase solution. […] The absorbance of the resulting color at 510 nm was measured using a photoelectric photometer.

The Km is the substrate concentration at which the rate is half of its maximum.

With `CCN1C(=O)C=CC1=O` [N-ethylmaleimide], the “Inhibition of the enzyme” value in data set [1] is recorded as “strongly inhibited”.

In the case of `O=C(O)CI` [monoiodoacetic acid], the “Inhibition of the enzyme” value in data set [1] is given as “strongly inhibited”.

In the case of `CNCC(=O)O` [sarcosine, N-methylglycine], the Km in data set [2] is 3.4 mM.

B1: heat-resistant sarcosine oxidase N from Bacillus sp. NS-129 (present enzyme) (Bacillus sp. NS-129) (protein)
chain: MSTHFDVIVVGAGSMGMAAGYYLAKQGVKTLLVDSFDPPHTNGSHHGDTRIIRHAYGEGREYVPFALRAQELWYELEKETHHKIFTQTGVLVYGPKGGSAFVSETMEAANIHSLEHELFEGKQLTDRWAGVEVPDNYEAIFEPNSGVLFSENCIQAYRELAEAHGATVLTYTPVEDFEVTEDLVTIKTAKGSYTANKLVVSMGAWNSKLLSKLDVEIPLQPYRQVVGFFECDEAKYSNNAHYPAFMVEVENGIYYGFPSFGGSGLKIGYHSYGQQIDPDTINREFGAYPEDEANLRKFLEQYMPGANGELKKGAVCMYTKTPDEHFVIDLHPKYSNVAIAAGFSGHGFKFSSVVGETLAQLATTGKTEHDISIFSLNRDALKKEAVK
notes: the present enzyme is ordinarily present within the cells; made in house; host or cells: Bacillus sp; NS-129 (FERM BP-671), the native producer; purified from the cells
In the case of B1, the Km in data set [3] is recorded as 4.7 mM.
